Experimental data as given in patent US10899738B2 (THE REGENTS OF THE UNIVERSITY OF MICHIGAN, priority 2016, dated 2021).
Read-outs that look alike come from different tables or passages of the source. Each block holds one compound with its values, some of them ahead of it.

Assays:
[1] = Cell growth inhibition, CellTiter-Glo Luminescent Cell Viability Assay; format: cell-based
Procedure: Cell growth inhibitory activity of representative menin inhibitors was determined using CellTiter-Glo® Luminescent Cell Viability Assay. Cells were seeded in 384-well white opaque cell culture plates at a density of 2,000 cells/well with serially diluted compounds and incubated at 37° C. in an atmosphere of 95% air and 5% CO2 for 4 days. Cell viability was determined using the CellTiter-Glo® Luminescent Cell Viability Assay Kit (Promega, Madison, Wis.) according to the manufacture's instruction. Briefly, a volume of CellTiter-Glo® Reagent equal to the volume of cell culture medium was added to each well, and then the plates were incubated at room temperature for 10-20 minutes. The luminescent signal was measured using a Tecan Infinite M1000 multimode microplate reader (Tecan, Morrisville, N.C.). The half maximal inhibitory concentration (IC50) was calculated using the GraphPad Prism 5 software (GraphPad Software, La Jolla, Calif.).

menin protein = menin protein (Homo sapiens (Human), UniProt O00255); assay: biochemical; format: binding; conditions: FP competitive binding; menin protein 4 nM, FAM-MM2 probe 2 nM; read-out: Menin Binding Affinity IC50
Outline: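 Competitive fluorescence polarization assay using FAM-labelled MLL1 peptide probe FAM-MM2 (2 nM final) preincubated with menin (4 nM final) in PBS with 0.02% bovine γ-globulin, 4% DMSO and 0.01% Triton X-100. Compounds were added and incubated 30 min at room temperature. IC50 came from nonlinear regression of competition curves, with Ki also derived.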

[2] = MOLM-13, 96 h, MOLM13 cells, 4 days, CellTiter-Glo, read-out: Cell Growth Inhibition IC50 (μM) MOLM13
[3] = MV4-11, 96 h, MV4, 11 cells, 4 days, CellTiter-Glo, read-out: Cell Growth Inhibition IC50 (μM) MV4, 11
[4] = MOLM-13, 96 h, read-out: Cell Growth Inhibition IC50 (μM) MOLM13, MOLM13 cells, 4 days, CellTiter-Glo
[5] = MV4-11, 96 h, read-out: Cell Growth Inhibition IC50 (μM) MV4, 11, MV4, 11 cells, 4 days, CellTiter-Glo

menin protein, sequence (O00255 whole entry): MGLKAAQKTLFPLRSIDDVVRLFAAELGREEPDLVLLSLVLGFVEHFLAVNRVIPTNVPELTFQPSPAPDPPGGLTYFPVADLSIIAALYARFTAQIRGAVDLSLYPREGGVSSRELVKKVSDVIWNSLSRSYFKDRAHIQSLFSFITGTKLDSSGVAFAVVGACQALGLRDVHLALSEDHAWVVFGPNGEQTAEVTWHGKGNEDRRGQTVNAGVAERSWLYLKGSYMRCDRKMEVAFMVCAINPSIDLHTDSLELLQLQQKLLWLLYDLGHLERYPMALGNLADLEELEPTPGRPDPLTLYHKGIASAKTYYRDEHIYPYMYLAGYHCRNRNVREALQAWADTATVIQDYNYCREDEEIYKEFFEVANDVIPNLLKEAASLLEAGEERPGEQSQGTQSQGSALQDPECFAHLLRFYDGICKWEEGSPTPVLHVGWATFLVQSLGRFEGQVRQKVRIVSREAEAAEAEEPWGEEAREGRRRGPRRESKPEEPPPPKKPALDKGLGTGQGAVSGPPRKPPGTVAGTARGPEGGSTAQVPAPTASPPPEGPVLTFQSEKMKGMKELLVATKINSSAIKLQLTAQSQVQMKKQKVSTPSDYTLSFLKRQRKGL

Structure (SMILES): CCN1Cc2ccccc2C(C2CCCC2)(C2CCN(CC3CN(c4ccc(S(=O)(=O)CC5CC5)cc4)C3)CC2)C1 (stereo not drawn) [compound 143, 4-cyclopentyl-4-(1-((1-(4-((cyclopropylmethyl)sulfonyl)phenyl)azetidin-3-yl)methyl)piperidin-4-yl)-2-ethyl-1,2,3,4-tetrahydroisoquinoline]
- IC50 [1, 2]: 3.4 ± 0.5 µM
- IC50 [1, 3]: 1.2 ± 1 µM
- IC50 (menin protein): 28 nM

- IC50 (menin protein): 16 nM
Structure (SMILES): COC(=O)N[C@H]1CCC[C@@H]1C(C#N)(c1ccccc1)C1CCN(CC2CN(c3ccc(S(=O)(=O)C4CC4)cc3Cl)C2)CC1 (mixture of isomers) [compound 395, methyl rac-((1S,2R)-2-((1-((1-(2-chloro-4-(cyclopropylsulfonyl)phenyl)azetidin-3-yl)methyl)piperidin-4-yl)(cyano)(phenyl)methyl)cyclopentyl)carbamate]
- IC50 [1, 4]: 2.29 µM
- IC50 [1, 5]: 0.65 µM

Structure (SMILES): COC(=O)N[C@H]1CCC[C@@H]1C(C#N)(c1ccccc1)C1CCN(CC2CN(c3ccc(S(=O)(=O)c4cnn(C)c4)cc3)C2)CC1 (mixture of isomers) [Cpd. No. 349, methyl (rac-(1S,2R)-2-(cyano(1-((1-(4-((1-methyl-1H-pyrazol-4-yl)sulfonyl)phenyl)azetidin-3-yl)methyl)piperidin-4-yl)(phenyl)methyl)cyclopentyl)carbamate]
- IC50 [1, 4]: 0.87 µM
- IC50 [1, 5]: 0.44 µM
- IC50 (menin protein): 15 nM

Structure (SMILES): CCN1Cc2ccccc2C(C2CCCC2)(C2CCN(CC3CN(c4ccc(S(=O)(=O)c5ccc(C(=O)O)cc5)cc4)C3)CC2)C1 (stereo not drawn) [compound 164, 4-((4-(3-((4-(4-cyclopentyl-2-ethyl-1,2,3,4-tetrahydroisoquinolin-4-yl)piperidin-1-yl)methyl)azetidin-1-yl)phenyl)sulfonyl)benzoic acid]
- IC50 [1, 2]: 0.72 µM
- IC50 [1, 3]: 0.27 µM
- IC50 (menin protein): 8 nM

Structure (SMILES): O=S(=O)(c1ccccc1)c1ccc(N2CC(CN3CCC(C4(C5CCCC5)NCCc5ccccc54)CC3)C2)cc1 (stereo not drawn) [compound 149, 1-cyclopentyl-1-(1-((1-(4-(phenylsulfonyl)phenyl)azetidin-3-yl)methyl)piperidin-4-yl)-1,2,3,4-tetrahydroisoquinoline]
- IC50 [1, 2]: 0.331 µM
- IC50 [1, 3]: 0.493 µM
- IC50 (menin protein): 12 nM

Structure (SMILES): N#CC(c1ccccc1)(C1CCN(CC2CN(c3ccc(S(=O)(=O)c4ccccc4)cc3)C2)CC1)[C@H]1CCC[C@@H]1OC(N)=O (mixture of isomers) [compound 223, rac-(1S,2R)-2-(cyano(phenyl)(1-((1-(4-(phenylsulfonyl)phenyl)azetidin-3-yl)methyl)piperidin-4-yl)methyl)cyclopentyl carbamate]
- IC50 [1, 4]: 0.49 µM
- IC50 [1, 5]: 0.29 µM
- IC50 (menin protein): 14 nM

Structure (SMILES): CNC(=O)O[C@H]1CCC[C@@H]1C(Cn1ccnc1C)(c1cccc(F)c1)C1CCN(CC2CN(c3ccc(S(=O)(=O)c4cnn(C)c4)cc3)C2)CC1 (mixture of isomers) [compound 411, rac-(1S,2R)-2-(1-(3-fluorophenyl)-2-(2-methyl-1H-imidazol-1-yl)-1-(1-((1-(4-((1-methyl-1H-pyrazol-4-yl)sulfonyl)phenyl)azetidin-3-yl)methyl)piperidin-4-3-yl)ethyl)cyclopentyl methylcarbamate]
- IC50 [1, 4]: 0.016 µM
- IC50 [1, 5]: 0.003 µM
- IC50 (menin protein): 3 nM

Structure (SMILES): CNS(=O)(=O)c1ccc(N2CC(CN3CCC(C4(C5CCCC5)NCCc5c(F)cccc54)CC3)C2)cc1 (stereo not drawn) [compound 119, 4-(3-((4-(1-cyclopentyl-5-fluoro-1,2,3,4-tetrahydroisoquinolin-1-yl)piperidin-1-yl)methyl)azetidin-1-yl)-N-methylbenzenesulfonamide]
- IC50 [1, 2]: 1.3 µM
- IC50 [1, 3]: 1.8 µM
- IC50 (menin protein): 15 nM

- IC50 (menin protein): 7 nM
Structure (SMILES): COC(=O)N[C@H]1CCC[C@@H]1C(Cn1ccnc1)(c1ccccc1)C1CCN(CC2CN(c3ccc(S(=O)(=O)c4cnn(C)c4)cc3)C2)CC1 (mixture of isomers) [compound 392, methyl rac-((1S,2R)-2-(2-(1H-imidazol-1-yl)-1-(1-((1-(4-((1-methyl-1H-pyrazol-4-yl)sulfonyl)phenyl)azetidin-3-yl)methyl)piperidin-4-yl)-1-phenylethyl)cyclopentyl) carbamate]
- IC50 [1, 4]: 0.76 ± 0.32 µM
- IC50 [1, 5]: 0.084 ± 0.032 µM

Structure (SMILES): CCN1Cc2ccccc2C(C2CCN(CC3CN(c4ccc(S(=O)(=O)c5cnn(C)c5)cc4)C3)CC2)([C@H]2CCC[C@@H]2NC(=O)NC)C1 (mixture of isomers) [Cpd. No. 291, rac-1-((1S,2R)-2-(2-ethyl-4-(1-((1-(4-((1-methyl-1H-pyrazol-4-yl)sulfonyl)phenyl)azetidin-3-yl)methyl)piperidin-4-yl)-1,2,3,4-tetrahydroisoquinolin-4-yl)cyclopentyl)-3-methylurea]
- IC50 [1, 4]: 0.71 µM
- IC50 [1, 5]: 0.2 µM
- IC50 (menin protein): 7 nM

Structure (SMILES): CCN1Cc2ccccc2C(C2CCN(CC3CN(c4ccc(S(=O)(=O)c5cnn(C)c5)cc4)C3)CC2)([C@H]2CCC[C@@H]2NC(C)=O)C1 (mixture of isomers) [Cpd. No. 292, rac-N-((1S,2R)-2-(2-ethyl-4-(1-((1-(4-((1-methyl-1H-pyrazol-4-yl)sulfonyl)phenyl)azetidin-3-yl)methyl)piperidin-4-yl)-1,2,3,4-tetrahydroisoquinolin-4-yl)cyclopentyl)acetamide]
- IC50 [1, 4]: 1.34 µM
- IC50 [1, 5]: 0.13 µM
- IC50 (menin protein): 11 nM

Structure (SMILES): CN1Cc2ccccc2C(C2CCCC2)(C2CCN(CC3CN(c4ccc(C#N)cc4)C3)CC2)C1 (stereo not drawn) [compound 45, 4-(3-((4-(4-cyclopentyl-2-methyl-1,2,3,4-tetrahydroisoquinolin-4-yl)piperidin-1-yl)methyl)azetidin-1-yl)benzonitrile]
- IC50 [1, 2]: 5 µM
- IC50 [1, 3]: 0.845 ± 0.436 µM
- IC50 (menin protein): 27 nM

Structure (SMILES): CCN1Cc2ccccc2C(C2CCCC2)(C2CCN(CC3CN(c4ccc(S(=O)(=O)c5cccnc5)cc4)C3)CC2)C1 (stereo not drawn) [compound 152, 4-cyclopentyl-2-ethyl-4-(1-((1-(4-(pyridin-3-ylsulfonyl)phenyl)azetidin-3-yl)methyl)piperidin-4-yl)-1,2,3,4-tetrahydroisoquinoline]
- IC50 [1, 2]: 0.49 µM
- IC50 [1, 3]: 0.46 µM
- IC50 (menin protein): 9 nM

Structure (SMILES): CCN1Cc2ccccc2C(C2CCCC2)(C2CCN(CC3CN(c4ccc(S(=O)(=O)c5ccncc5)cc4)C3)CC2)C1 (stereo not drawn) [Cpd. No. 148, 4-cyclopentyl-2-ethyl-4-(1-((1-(4-(pyridin-4-ylsulfonyl)phenyl)azetidin-3-yl)methyl)piperidin-4-yl)-1,2,3,4-tetrahydroisoquinoline]
- IC50 [1, 2]: 1.5 ± 0.9 µM
- IC50 [1, 3]: 0.81 ± 0.364 µM
- IC50 (menin protein): 6 nM

Structure (SMILES): N#Cc1ccc(N2CC(CN3CCC(C4(C5CCCC5)CNCc5ccccc54)CC3)C2)cc1 (stereo not drawn) [compound 43, 4-(3-((4-(4-cyclopentyl-1,2,3,4-tetrahydroisoquinolin-4-yl)piperidin-1-yl)methyl)azetidin-1-yl)benzonitrile]
- IC50 [1, 2]: 2.1 µM
- IC50 [1, 3]: 0.896 ± 0.056 µM
- IC50 (menin protein): 26 nM

- IC50 (menin protein): 3 nM
Structure (SMILES): CNC(=O)O[C@H]1CCC[C@@H]1C(Cn1ccnc1C)(c1ccccc1)C1CCN(CC2CN(c3ccc(C#N)cc3)C2)CC1 (mixture of isomers) [compound 406, rac-(1S,2R)-2-(1-(1-((1-(4-cyanophenyl)azetidin-3-yl)methyl)piperidin-4-yl)-2-(2-methyl-1H-imidazol-1-yl)-1-phenylethyl)cyclopentyl methylcarbamate]
- IC50 [1, 4]: 0.009 ± 0.0004 µM
- IC50 [1, 5]: 0.004 ± 0.002 µM

Structure (SMILES): CN1Cc2ccccc2C(C2CCCC2)(C2CCN(CC3CN(c4ccc(S(=O)(=O)C5CC5)cc4)C3)CC2)C1 (stereo not drawn) [compound 70, 4-cyclopentyl-4-(1-((1-(4-(cyclopropylsulfonyl)phenyl)azetidin-3-yl)methyl)piperidin-4-yl)-2-methyl-1,2,3,4-tetrahydroisoquinoline]
- IC50 [1, 2]: 3.5 µM
- IC50 [1, 3]: 2.2 µM
- IC50 (menin protein): 12 nM

Structure (SMILES): CCN1Cc2ccccc2C(C2CCCC2)(C2CCN(CC3CN(c4ccc(S(=O)(=O)c5cnn(C)c5)cc4)C3)CC2)C1 (stereo not drawn) [compound 102, 4-cyclopentyl-2-ethyl-4-(1-((1-(4-((1-methyl-1H-pyrazol-4-yl)sulfonyl)phenyl)azetidin-3-yl)methyl)piperidin-4-yl)-1,2,3,4-tetrahydroisoquinoline]
- IC50 [1, 2]: 0.708 µM
- IC50 [1, 3]: 0.267 µM
- IC50 (menin protein): 11 nM

Structure (SMILES): CCc1cnccc1S(=O)(=O)c1ccc(N2CC(CN3CCC(C4(C5CCCC5)CN(CC)Cc5ccccc54)CC3)C2)cc1 (stereo not drawn) [compound 156, 4-cyclopentyl-2-ethyl-4-(1-((1-(4-((3-ethylpyridin-4-yl)sulfonyl)phenyl)azetidin-3-yl)methyl)piperidin-4-yl)-1,2,3,4-tetrahydroisoquinoline]
- IC50 [1, 2]: 1.8 µM
- IC50 [1, 3]: 0.654 µM
- IC50 (menin protein): 8 nM

Structure (SMILES): CNC(=O)O[C@H]1CCC[C@@H]1C(Cn1cccc1)(c1ccccc1)C1CCN(CC2CN(c3ccc(S(=O)(=O)c4ccccc4)cc3)C2)CC1 (mixture of isomers) [compound 359, rac-(1S,2R)-2-(1-phenyl-1-(1-((1-(4-(phenylsulfonyl)phenyl)azetidin-3-yl)methyl)piperidin-4-yl)-2-(1H-pyrrol-1-yl)ethyl)cyclopentyl methylcarbamate]
- IC50 [1, 4]: 1.46 µM
- IC50 [1, 5]: 0.43 µM
- IC50 (menin protein): 12 nM
